{"source": "patent US20120122180A1", "about": "“INC[…] TYPE III […] INTO M[…] OF THE TYPE I AND III […] AND FATTY ACID SYNTHASE FAMILIES” (Salk Institute for Biological Studies, priority 2006, published 2012)", "assay_type_in_all_cases": "biochemical", "key": {"[1]": {"target": "T1, Steely2 C-terminal type III PKS domain (Dictyostelium discoideum, UniProt Q54FI3)", "T1 construct": "poly-histidine (pHIS-8 vector, thrombin-cleavable) (N); made in house; host or cells: E. coli BL21(DE3) or CodonPlus (Stratagene)", "T1 sequence (Q54FI3 2595-2968)": "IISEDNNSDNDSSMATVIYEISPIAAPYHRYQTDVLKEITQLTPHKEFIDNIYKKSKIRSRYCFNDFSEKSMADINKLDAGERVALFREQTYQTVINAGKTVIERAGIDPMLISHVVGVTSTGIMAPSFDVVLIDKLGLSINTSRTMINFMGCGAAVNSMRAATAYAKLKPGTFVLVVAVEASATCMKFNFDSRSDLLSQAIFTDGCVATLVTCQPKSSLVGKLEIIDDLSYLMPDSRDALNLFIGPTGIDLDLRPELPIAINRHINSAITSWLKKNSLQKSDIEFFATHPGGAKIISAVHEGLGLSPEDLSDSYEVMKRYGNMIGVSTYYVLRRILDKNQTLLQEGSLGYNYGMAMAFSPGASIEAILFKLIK", "experiment": "In vitro polyketide extension assay with [14-C]malonyl-CoA and CoA-linked starters, TLC/autoradiography", "settings": "heterologously expressed domain, radiolabeled malonyl-CoA extender", "experimental": "(§1) These differences in in vitro starter specificity are consistent with the substantial divergence of these steely active site predicted by homology modeling.\n(§2) Standard 100 μL in vitro assays of heterologously expressed Steely C-terminal domains using [14-C]malonyl-CoA and various CoA-linked starters were conducted, extracted with ethyl acetate, analyzed by reverse-phase TLC, and visualized by autoradiography as previously reported."}, "[2]": {"target": "T2, Steely1 C-terminal type III PKS domain (Dictyostelium discoideum, UniProt Q55E72)", "T2 construct": "poly-histidine (pHIS-8 vector, thrombin-cleavable) (N); made in house; host or cells: E. coli BL21(DE3) or CodonPlus (Stratagene)", "T2 sequence (Q55E72 2776-3147)": "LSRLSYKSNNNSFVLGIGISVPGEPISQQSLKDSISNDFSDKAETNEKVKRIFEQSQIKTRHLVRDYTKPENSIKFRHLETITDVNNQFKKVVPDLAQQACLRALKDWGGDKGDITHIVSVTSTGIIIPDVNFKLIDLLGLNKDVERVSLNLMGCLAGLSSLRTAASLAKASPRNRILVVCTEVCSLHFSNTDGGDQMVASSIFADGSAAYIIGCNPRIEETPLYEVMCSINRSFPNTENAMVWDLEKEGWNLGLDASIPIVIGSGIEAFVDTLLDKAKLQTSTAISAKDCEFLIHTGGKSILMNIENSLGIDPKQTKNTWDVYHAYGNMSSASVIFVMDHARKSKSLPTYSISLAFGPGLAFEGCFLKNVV", "experiment": "In vitro polyketide extension assay with [14-C]malonyl-CoA and CoA-linked starters, TLC/autoradiography", "settings": "heterologously expressed domain, radiolabeled malonyl-CoA extender", "experimental": "as §1, §2"}, "[3]": {"target": "T3, Steely2 type III PKS domain (Dictyostelium discoideum, UniProt Q54FI3)", "T3 construct": "poly-histidine (pHIS-8 vector, thrombin-cleavable) (N); made in house; host or cells: E. coli BL21(DE3) or CodonPlus (Stratagene)", "T3 sequence (Q54FI3 2595-2968)": "T1 sequence (Q54FI3 2595-2968)", "experiment": "HPLC-MS-MS analysis of in vitro assays with unlabeled malonyl-CoA", "settings": "overnight, Bis-Tris Propane pH 7.0", "experimental": "(§3) The related D. discoideum DIF-2 acylphloroglucinol scaffold seems to be derived from a pentanoyl intermediate. Therefore, in vitro assays of each steely C-terminal domain were also primed with butanoyl-CoA (12), as pentanoyl-CoA is not commercially available.\n(§4) For HPLC-MS-MS analyses 25 μl injections of similarly prepared overnight reactions (but without organic extraction) buffered with 100 mM Bis-Tris Propane (pH 7.0), using unlabeled malonyl-CoA, were used. LC-MS-MS analyses were carried out on an Agilent 1100 HPLC with an integrated Agilent LC/MSD Trap XCT ion trap mass spectrometer, using a reversed-phase C18 column (4.6×150 mm; Gemini) maintained at 30° C. A gradient mobile phase ramped from 5% to 100% acetonitrile in water (with each solvent containing 0.1% v/v formic acid) between minutes 3 and 13 of a 25-min run using a flow rate of 0.5 ml min^−1 and a 0.1 ml min^−1 post column injection of 20 mM ammonium acetate in water. UV absorbance was monitored at 286 nm.\n(§5) PCP was identified by direct HPLC-MS-MS comparison with an authentic synthetic standard, kindly provided by S. Horinouchi and N. Funa. Other hexanoyl- and butanoyl-primed enzymatic products were identified by comparing their relative HPLC elution times and negative MS-MS fragmentation patterns with previously published LC-MS-MS analyses of authentic standards (Funa et al. (2002) “Properties and substrate specificity of RppA, a chalcone synthase-related polyketide synthase in Streptomyces griseus” J Biol Chem 277:4628-4635). EICs with parent ion masses of plausible polyketide products were used to detect trace amounts of minor enzymatic products, but only triketide and tetraketide products were observed."}, "[4]": {"target": "T4, Steely1 type III PKS domain (Dictyostelium discoideum, UniProt Q55E72)", "T4 construct": "poly-histidine (pHIS-8 vector, thrombin-cleavable) (N); made in house; host or cells: E. coli BL21(DE3) or CodonPlus (Stratagene)", "T4 sequence (Q55E72 2776-3147)": "T2 sequence (Q55E72 2776-3147)", "experiment": "HPLC-MS-MS analysis of in vitro assays with unlabeled malonyl-CoA", "settings": "overnight, Bis-Tris Propane pH 7.0", "experimental": "as §3, §4, §5"}}}
{"smiles": "CC(=O)SCCNC(=O)CCNC(=O)[C@H](O)C(C)(C)COP(=O)(O)OP(=O)(O)OC[C@H]1O[C@@H](n2cnc3c(N)ncnc32)[C@H](O)[C@@H]1OP(=O)(O)O", "note": "[acetyl-CoA]", "values": [{"measurement": "polyketide extension activity with the substance as starter", "setting": "[1]", "value": "Neither enzyme showed significant polyketide extension activity"}, {"measurement": "polyketide extension activity with the substance as starter", "setting": "[2]", "value": "Neither enzyme showed significant polyketide extension activity"}]}
{"smiles": "CCCC(=O)SCCNC(=O)CCNC(=O)[C@H](O)C(C)(C)COP(=O)(O)OP(=O)(O)OC[C@H]1O[C@@H](n2cnc3c(N)ncnc32)[C@H](O)[C@@H]1OP(=O)(O)O", "note": "[butanoyl-CoA]", "values": [{"measurement": "enzymatic products of starter-primed assay", "setting": "[3]", "value": "no effect on the cyclization fate"}, {"measurement": "enzymatic products of starter-primed assay", "setting": "[4]", "value": "no effect on the cyclization fate"}]}
{"smiles": "CCCCCC(=O)SCCNC(=O)CCNC(=O)[C@H](O)C(C)(C)COP(=O)(O)OP(=O)(O)OC[C@H]1O[C@@H](n2cnc3c(N)ncnc32)[C@H](O)[C@@H]1OP(=O)(O)O", "note": "[hexanoyl-CoA]", "values": [{"measurement": "polyketide extension activity with the substance as starter", "setting": "[1]", "value": "catalyze iterative polyketide extension"}, {"measurement": "polyketide extension activity with the substance as starter", "setting": "[2]", "value": "catalyze iterative polyketide extension"}, {"measurement": "enzymatic products of starter-primed assay", "setting": "[3]", "value": "catalyzes three rounds of polyketide chain extension and the final CHS-like intramolecular C6 to C1 Claisen condensation"}, {"measurement": "enzymatic products of starter-primed assay", "setting": "[4]", "value": "produced only triketide (10) and tetraketide (11) lactonization-derived pyrones"}]}
{"smiles": "CC(C)CC(=O)SCCNC(=O)CCNC(=O)[C@H](O)C(C)(C)COP(=O)(O)OP(=O)(O)OC[C@H]1O[C@@H](n2cnc3c(N)ncnc32)[C@H](O)[C@@H]1OP(=O)(O)O", "note": "[isovaleryl-CoA]", "values": [{"measurement": "polyketide extension activity with the substance as starter", "setting": "[1]", "value": "would accept"}, {"measurement": "polyketide extension activity with the substance as starter", "setting": "[2]", "value": "not Steely1 would accept"}]}
{"smiles": "CC(C)(COP(=O)(O)OP(=O)(O)OC[C@H]1O[C@@H](n2cnc3c(N)ncnc32)[C@H](O)[C@@H]1OP(=O)(O)O)[C@@H](O)C(=O)NCCC(=O)NCCSC(=O)CC(=O)O", "note": "[malonyl-CoA]", "values": [{"measurement": "polyketide extension activity with the substance as starter", "setting": "[1]", "value": "Neither enzyme showed significant polyketide extension activity"}, {"measurement": "polyketide extension activity with the substance as starter", "setting": "[2]", "value": "Neither enzyme showed significant polyketide extension activity"}]}
{"smiles": "CCCCCCCC(=O)SCCNC(=O)CCNC(=O)[C@H](O)C(C)(C)COP(=O)(O)OP(=O)(O)OC[C@H]1O[C@@H](n2cnc3c(N)ncnc32)[C@H](O)[C@@H]1OP(=O)(O)O", "note": "[octanoyl-CoA]", "values": [{"measurement": "polyketide extension activity with the substance as starter", "setting": "[1]", "value": "only Steely1 accepted"}, {"measurement": "polyketide extension activity with the substance as starter", "setting": "[2]", "value": "accepted"}]}
{"smiles": "CC(C)(COP(=O)(O)OP(=O)(O)OC[C@H]1O[C@@H](n2cnc3c(N)ncnc32)[C@H](O)[C@@H]1OP(=O)(O)O)[C@@H](O)C(=O)NCCC(=O)NCCSC(=O)/C=C/c1ccc(O)cc1", "note": "[p-coumaroyl-CoA]", "values": [{"measurement": "polyketide extension activity with the substance as starter", "setting": "[1]", "value": "Neither enzyme showed significant polyketide extension activity"}, {"measurement": "polyketide extension activity with the substance as starter", "setting": "[2]", "value": "Neither enzyme showed significant polyketide extension activity"}]}
